# Data from ChEMBL document CHEMBL2086285, “Targeting the liver stage of malaria parasites: a yet unmet goal” (J Med Chem, 2012).
# System: Plasmodium cynomolgi
# Assay: Antimalarial activity against Plasmodium cynomolgi M infected in rhesus monkey administered as po qd for 7 days
# Type: functional
# Details: in Macaca mulatta, 168 h
row,Compound,ED50 [mg/kg]
1,CCc1ccnc2c(NC(C)CCCN)cc(OC)cc12 (configuration not stated),0.45
2,COc1cc(NC(C)CCCNC(C)C)c2nccc(C)c2c1 (configuration not stated),0.32
3,CCC(CCCN)Nc1cc(OC)cc2c(C)ccnc12 (configuration not stated),0.074
4,COc1cc(NC(C)CCCN)c2ncccc2c1C(=O)C(F)(F)F (configuration not stated),0.44
5,COc1cc(NC(C)CCCCNC(C)C)c2nccc(C)c2c1 (configuration not stated),0.35
6,CCN(CC)CCCNc1cc(OC)cc2c(C)cc(C)nc12,0.36
7,COc1cc(NCCCCCNC(C)C)c2nccc(C)c2c1,0.5
8,CCN(CC)CCCCCCNc1cc(OC)cc2c(C)ccnc12 [SITAMAQUINE],0.35
9,COc1cc(NC(C)CCCN)c2ncccc2c1 (configuration not stated) [PRIMAQUINE],0.38
10,COc1cc(NC(C)CCCN)c2ncccc2c1Oc1cccc(C(F)(F)F)c1 (configuration not stated),0.25
11,COc1cc(NCCCCC(C)N)c2nccc(C)c2c1 (configuration not stated),0.12
12,COc1cc(NC(C)CCCN)c2nc(C)cc(C)c2c1 (configuration not stated),0.36
13,COc1cc(NC(C)CCCN)c2nc(OCc3ccc(C(F)(F)F)cc3)ccc2c1 (configuration not stated),0.5
14,COc1cc(NC(C)CCCN)c2nc(C)ccc2c1Oc1cccc(C(F)(F)F)c1 (configuration not stated),0.36

# System: Plasmodium berghei
# Assay: Antimalarial activity against liver stages of Plasmodium berghei in human HepG2 cells assessed as growth inhibition at 10 ug/mL
# Type: functional
# Details: read-out: GI
row,Compound,inhibition of growth at 10 µg/mL [%]
1,COc1c(-c2c(C)cc(OC)c3c(O)cccc23)ccc2c1[C@@H](C)N[C@H](C)C2,48.8
2,COc1c(C)nc(C)c2c(OC)c(-c3c(C)cc(OC)c4c(OC)cccc34)ccc12 [DIONCOPHYLLACINE A],41.9
3,COc1cc(C)c(-c2ccc(OC(=O)c3ccccc3)c3c2C[C@@H](C)N(C=O)[C@@H]3C)c2cccc(O)c12,52.7
4,COc1cccc2c(-c3ccc4c(c3O)[C@@H](C)N[C@H](C)C4)c(C)cc(OC)c12 [DIONCOPHYLLINE A],67.5
5,COc1ccc(-c2c(C)cc(OC)c3c(O)cccc23)c2c1[C@@H](C)N(C=O)[C@H](C)C2,98.3
6,COc1c2c(cc(O)c1-c1c(C)cc(OC)c3c(OC)cccc13)C[C@@H](C)N=C2C [ANCISTROBARTERINE A],51.6

# System: Plasmodium yoelii
# Assay: Antimalarial activity against Plasmodium yoelii infected in CD-1 mouse assessed as efficacy at 160 mg/kg, ip
# Type: functional
# Details: route intraperitoneal
row,Compound,Efficacy [%]
1,C[C@H]1c2cccc(O)c2C(=O)C2=C(O)[C@]3(O)C(=O)C(C(N)=O)=C(O)[C@@H](N(C)C)[C@@H]3[C@@H](O)[C@@H]21.O [DOXYCYCLINE],100
2,CC[C@H]1OC(=O)[C@H](C)[C@@H](O[C@H]2C[C@@](C)(OC)[C@@H](O)[C@H](C)O2)[C@H](C)[C@@H](O[C@@H]2O[C@H](C)C[C@H](N(C)C)[C@H]2O)[C@](C)(O)C[C@@H](C)CN(C)[C@H](C)[C@@H](O)[C@]1(C)O [AZITHROMYCIN],100

# System: Plasmodium yoelii
# Assay: Antimalarial activity against Plasmodium yoelii infected in CD-1 mouse assessed as efficacy at 40 mg/kg, ip
# Type: functional
# Details: route intraperitoneal
row,Compound,Efficacy [%]
1,C[C@H]1c2cccc(O)c2C(=O)C2=C(O)[C@]3(O)C(=O)C(C(N)=O)=C(O)[C@@H](N(C)C)[C@@H]3[C@@H](O)[C@@H]21.O [DOXYCYCLINE],40
2,CC[C@H]1OC(=O)[C@H](C)[C@@H](O[C@H]2C[C@@](C)(OC)[C@@H](O)[C@H](C)O2)[C@H](C)[C@@H](O[C@@H]2O[C@H](C)C[C@H](N(C)C)[C@H]2O)[C@](C)(O)C[C@@H](C)CN(C)[C@H](C)[C@@H](O)[C@]1(C)O [AZITHROMYCIN],80

# System: Plasmodium yoelii
# Assay: Antimalarial activity against Plasmodium yoelii infected in CD-1 mouse assessed as efficacy at 160 mg/kg, po after 2 hrs
# Type: functional
# Details: not given
row,Compound,Efficacy [%]
1,CC[C@H]1OC(=O)[C@H](C)[C@@H](O[C@H]2C[C@@](C)(OC)[C@@H](O)[C@H](C)O2)[C@H](C)[C@@H](O[C@@H]2O[C@H](C)C[C@H](N(C)C)[C@H]2O)[C@](C)(O)C[C@@H](C)CN(C)[C@H](C)[C@@H](O)[C@]1(C)O [AZITHROMYCIN],100

# System: Plasmodium yoelii
# Assay: Antimalarial activity against Plasmodium yoelii infected in CD-1 mouse assessed as efficacy at 40 mg/kg, po after 2 hrs
# Type: functional
# Details: not given
row,Compound,Efficacy [%]
1,CC[C@H]1OC(=O)[C@H](C)[C@@H](O[C@H]2C[C@@](C)(OC)[C@@H](O)[C@H](C)O2)[C@H](C)[C@@H](O[C@@H]2O[C@H](C)C[C@H](N(C)C)[C@H]2O)[C@](C)(O)C[C@@H](C)CN(C)[C@H](C)[C@@H](O)[C@]1(C)O [AZITHROMYCIN],40

# System: Plasmodium berghei
# Assay: Antimalarial activity against liver stages of Plasmodium berghei assessed as inhibition of cytochrome bc1 complex
# Type: functional, organism-based
# Details: not given
row,Compound,IC50 [nM]
1,C[C@H](CCCCCC(F)(F)F)CC1=C(O)C(=O)c2ccccc2C1=O,17.1
2,CCCCCC[C@@H](C)CC1=C(O)C(=O)c2c(C)cccc2C1=O,246
3,Cc1cccc2c1C(=O)C(O)=C(C[C@H](C)CCCCCC(F)(F)F)C2=O,4450
4,CCCCCC[C@@H](C)CC1=C(O)C(=O)c2ccccc2C1=O,96.2

# System: Plasmodium vivax
# Assay: Antimalarial activity against Plasmodium vivax assessed as effect on cure rate after 28 days
# Type: functional
# Details: not given
row,Compound,Activity [%]
1,C[C@H]1c2cccc(O)c2C(=O)C2=C(O)[C@]3(O)C(=O)C(C(N)=O)=C(O)[C@@H](N(C)C)[C@@H]3[C@@H](O)[C@@H]21.O [DOXYCYCLINE],56
2,CN(C)[C@@H]1C(O)=C(C(N)=O)C(=O)[C@@]2(O)C(O)=C3C(=O)c4c(O)cccc4[C@@](C)(O)[C@H]3C[C@@H]12 [TETRACYCLINE],56
3,CCC[C@@H]1C[C@@H](C(=O)N[C@@H]([C@H]2O[C@H](SC)[C@H](O)[C@@H](O)[C@H]2O)[C@H](C)Cl)N(C)C1 [CLINDAMYCIN],56
4,CC[C@H]1OC(=O)[C@H](C)[C@@H](O[C@H]2C[C@@](C)(OC)[C@@H](O)[C@H](C)O2)[C@H](C)[C@@H](O[C@@H]2O[C@H](C)C[C@H](N(C)C)[C@H]2O)[C@](C)(O)C[C@@H](C)CN(C)[C@H](C)[C@@H](O)[C@]1(C)O [AZITHROMYCIN],58

# System: Plasmodium yoelii
# Assay: Antimalarial activity against Plasmodium yoelii infected in mouse assessed as protection against parasitic infection at 160 mg/kg, po
# Type: functional
# Details: not given
row,Compound,Activity [%]
1,CCOC(=O)/N=C(\NC1=NC(=O)C(=O)N1C(C)C)Nc1ccc(Cl)c(Cl)c1,100
2,CC(C)N1C(=O)C(=O)N=C1N/C(=N\C(=O)OC(C)(C)C)Nc1ccc(Cl)c(Cl)c1,100

# System: Plasmodium yoelii
# Assay: Antimalarial activity against liver stages of Plasmodium yoelii after 96 hrs
# Type: functional, organism-based
# Details: Plasmodium yoelii, 96 h
row,Compound,IC50 [µM]
1,CC(=O)N(O)CCCCCNC(=O)CCC(=O)N(O)CCCCCNC(=O)CCC(=O)N(O)CCCCCN [DEFEROXAMINE],20
2,C[C@]1(C(=O)O)CSC(c2ncccc2O)=N1 [DESFERRITHIOCIN],10

# System: Plasmodium falciparum
# Assay: Antimalarial activity against liver stages of Plasmodium falciparum after 96 hrs
# Type: functional, organism-based
# Details: not given
row,Compound,IC50 [µM]
1,CC(=O)N(O)CCCCCNC(=O)CCC(=O)N(O)CCCCCNC(=O)CCC(=O)N(O)CCCCCN [DEFEROXAMINE],3.4
2,C[C@]1(C(=O)O)CSC(c2ncccc2O)=N1 [DESFERRITHIOCIN],2.9

# System: Plasmodium berghei
# Assay: Antimalarial activity against liver stages of Plasmodium berghei […] infected in human Hepa1-6 cells assessed as reduction in liver parasite load at 10 uM/L incubated for 1 hr prior to sporozoite inoculation measured after 46 to 48 hrs by fluorescence microscope
# Type: functional
# Parameters: scale not given: the % may be the effect or the level left
# Details: not given
row,Compound,Activity [%]
1,CC(C)(C)NC(=O)[C@@H]1C[C@@H]2CCCC[C@@H]2CN1C[C@@H](O)[C@H](Cc1ccccc1)NC(=O)[C@H](CC(N)=O)NC(=O)c1ccc2ccccc2n1,55

# System: Plasmodium yoelii
# Assay: Antimalarial activity against liver stages of Plasmodium yoelii 17XNL expressing GFP infected in human HepG2 cells transfected with CD81 assessed as growth inhibition of hepatic parasite after 40 hrs by flow cytometry
# Type: functional, organism-based
# Details: not given
row,Compound,IC50 [µM]
1,Oc1c(Cl)cc(Cl)c(Cl)c1Cc1c(O)c(Cl)cc(Cl)c1Cl [HEXACHLOROPHENE],4
2,CO[C@H]1/C=C/O[C@@]2(C)Oc3c(C)c(O)c4c(O)c(c(/C=N/N5CCN(C)CC5)c(O)c4c3C2=O)NC(=O)/C(C)=C\C=C\[C@H](C)[C@H](O)[C@@H](C)[C@@H](O)[C@@H](C)[C@H](OC(C)=O)[C@@H]1C [RIFAMPIN],22.2

# System: Plasmodium yoelii
# Assay: Antimalarial activity against liver stages of Plasmodium yoelii
# Type: functional, organism-based
# Details: not given
row,Compound,IC50 [µM]
1,CN1CN(Cc2ccccc2)C(=O)N[C@@H](Cc2ccccc2)C1=O,> 200
2,CN1CNC(=O)N[C@H](Cc2ccccc2)C1=O,> 200

# System: Plasmodium berghei
# Assay: Antimalarial activity against liver stages of Plasmodium berghei
# Type: functional, organism-based
# Details: not given
row,Compound,IC50 [µM]
1,COc1cc(NC(C)CCCNCc2ccc(CO[C@H]3O[C@@H]4O[C@@]5(C)CC[C@H]6[C@H](C)CCC([C@H]3C)[C@@]46OO5)cc2)c2ncccc2c1 (some centres not stated),0.155
2,COc1cc(NC(C)CCCN)c2ncccc2c1 (configuration not stated) [PRIMAQUINE],13
